The results in this text go back to US20250368651A1 (priority 2022, published 2025).

Assay [1] deals with RNA Seq6 UGAAGGAAGGU
Kind of assay: Fluorescence polarization (FP) binding assay, RNA Seq6. As to the method: (§1) All synthetic DNA and RNA oligomers were purchased from Integrated DNA Technologies and reconstituted in nuclease-free water (Invitrogen #AM9932) at 1 mM. The concentration of the oligonucleotides at ˜0.1 mM was calibrated with the A260 value measured by a NanoDrop ND-1000 (Thermo, Waltham, MA, USA) and the predicted extinction coefficient (http://www.oligoevaluator.com) using Lamber-Beer's Law. The risdiplam analogues (1 mM in DMSO) were diluted in 2× assay buffer (40 mM HEPES, 200 mM NaCl for RNA; 40 mM HEPES, 200 mM NaCl, 1 mM MgCl2 for DNA) to make a 1 μM 2× working solution.
A 1:2 dilution series (8 points) of each oligonucleotide was prepared in 20-30 μL water to desired concentrations (i.e., 1-128 μM). 20-30 μL 2× working solution containing the 2× assay buffer and the small-molecule ligand was added to each oligonucleotide sample in 1:1 (v/v) and mixed by pipetting for 4 times. For fluorescence polarization measurement, 20 μL of the above 1× working solution was transferred into a 384-well, black, F-bottom microplates (Greiner Bio-One) in duplicates or triplicates. The plate was equilibrated at room temperature for 5 min before being read using a microplate reader (SYNERGY H1, BioTek; Excitation/Emission=360/460 nm) at 25° C. For compound SMN-C5, a competitive binding assay was employed to measure an apparent Kd. SMN-C5 was 1:2 serial diluted for 10 concentration points starting at 750 μM in DMSO. A mixture of SMN-C2 (0.5 μM) and DNA Seq6 (25 μM) in 1× assay buffer was prepared and incubated at room temperature for 10 minutes. 3 μL of SMN-C5 solution at each concentration was added to a 42 μL SMN-C2/DNA Seq6 mixture and incubated at room temperature for 10 minutes. The mixture was then transferred into a microplate (20 μL each well) in duplicates for fluorescence polarization readout. The experimental data were analyzed using Prism 8 software (Graphpad Software, San Diego, CA, USA).
A general note: In fluorescence polarisation assays a small probe gives low polarisation when free and higher when bound to something large.

Assay [2] has as its target DNA Seq7 (UUAAGGAAGGU as deoxyribonucleotides). Kind of assay: FP binding assay, DNA Seq7. The conditions noted are these: Seq 7; 0.5 μM SMN-C2. As to the method: as §1
(§2) A 1:2 dilution series (8 points) of each oligonucleotide was prepared in 20-30 μL water to desired concentrations (i.e., 1-128 μM). […] For fluorescence polarization measurement, 20 μL of the above 1× working solution was transferred into a 384-well, black, F-bottom microplates (Greiner Bio-One) in duplicates or triplicates. The plate was equilibrated at room temperature for 5 min before being read using a microplate reader (SYNERGY H1, BioTek; Excitation/Emission=360/460 nm) at 25° C. […] The mixture was then transferred into a microplate (20 μL each well) in duplicates for fluorescence polarization readout. The experimental data were analyzed using Prism 8 software (Graphpad Software, San Diego, CA, USA).

Assay [3] addresses DNA Seq9 TTAAGGAAGTT
Kind of assay: FP binding assay, DNA Seq9. The conditions noted are these: Seq 9 TTAAGGAAGTT; 0.5 μM SMN-C2. As to the method: as §1, §2

Assay [4] deals with RNA Seq13 UGAAGAAAGGU
Kind of assay: FP binding assay, RNA Seq13. The conditions noted are these: Seq 13 UGAAGAAAGGU; 0.5 μM SMN-C2. As to the method: as §1, §2

Assay [5] concerns the target DNA S14 […]. Kind of assay: FP binding assay, 18-nt DNA S14. As to the method: as §1, §2
Assay [6] has as its target DNA S15 […]. Kind of assay: FP binding assay, 18-nt DNA S15. As to the method: as §1, §2
Assay [7] concerns the target DNA S17 […]. Kind of assay: FP binding assay, 18-nt DNA S17. As to the method:
as §1, §2

Assay [8] deals with DNA S22 […]. Kind of assay: FP binding assay, 18-nt DNA S22. As to the method:
as §1, §2

In assay [9] the target is DNA S24 […]. Kind of assay: FP binding assay, 18-nt DNA S24. As to the method:
as §1, §2

Assay [10] addresses 5′-biotinylated RNA Seq4. Kind of assay: Surface plasmon resonance (SPR) assay, RNA Seq4. Type of assay: binding. The conditions noted are these: footnote b: SPR assay for RNA Seq4. As to the method:
SPR experiments were performed on a Biacore T200 (GE Healthcare) instrument at 25° C. using streptavidin pre-coated SA sensor chips (GE Healthcare). The running buffer composed of 10 mM HEPES, 100 mM NaCl, 0.05% Tween 20 (w/v), 5 mM EDTA, 0.1% (v/v) DMSO at pH 6.8 was prepared freshly, filtered through the […] PVDF membrane prior to use. 5′-biotinylated RNA Seq4 was purchased from GenScript and dissolved in nuclease-free water to a concentration of 100 μM. For immobilization of the biotinylated RNA, the sensor chip was firstly conditioned with 3 consecutive 1 min injections of high salt solution (50 mM NaOH, 1M NaCl) at a flow rate of […]. Next, the biotinylated RNA was diluted 1000× in running buffer (100 nM) and applied over the streptavidin sensor chip surface at a flow rate of 10 μL/min to achieve immobilization level of about 800 RU. Finally, alkyne-PEG-biotin (50 μM in running buffer) was injected (1 min, […]) to block remaining streptavidin surface binding sites. The kinetics analysis was performed following the BiaControl Software Wizard Kinetics protocol. […] All monitored resonance signals were subtracted with signals from a non-binding reference channel. Kinetic values (Kd, ka, kd) were calculated using the BiaEvaluation Software Binding Affinity protocol with 1:1 fitting. […]
A general note: In SPR one partner is held on a chip, and binding of the other changes the refractive index at the surface.

Assay [11] deals with SMN2 exon 7 minigenes with single-point mutations M1 and M2. Kind of assay: SMN2 splicing assay with minigenes mutated in the GA-rich sequence (M1, M2) in 293T cells. Type of assay: cell-based, human.
The test system of assay [12] is dsDNA formed by annealing Seq6 and its reverse complement, Seq6_RC. Kind of assay: ITC, dsDNA (annealed Seq6 and Seq6_RC). Type of assay: binding. Particulars: dsDNA of Seq6 and Seq6_RC. As to the method: The figures are representation of three independent experiments.
Isothermal calorimetric titrations were carried out on a Malvern Analytical MicroCal PEAQ-ITC at 25° C. The DNA (see above for the calibration procedure) and the SMN-C2 water solutions containing the desired amount of the materials were freeze-dried overnight (Labconco FreeZone 4.5 Liter Benchtop Freeze Dry System) and then re-suspended in appropriate volume of buffer containing 5% DMSO, 100 mM NaCl and 30 mM MES buffer at pH 6.0 (e.g., 350 μL for DNA Seq6, 80 μL for SMN-C2). […] The analysis was performed using the instrument's MicroCal PEAQ-ITC Analysis Software (Malvern Analytical). The ITC data was fit using the One Set of Sites mode to calculate the dissociate constant (Kd), binding stoichiometry, and the changes in enthalpy and Gibbs free energy. In differential power (DP) trace, the baseline was subtracted for better visualization, which has no impact on calculations.

The term Kd denotes the equilibrium constant for the complex coming apart. As for `CCN1CCN(c2ccc3cc(-c4cn5cc(C)nc(C)c5n4)c(=O)oc3c2)C[C@@H]1C` [SMN-C2, (S)-3-(6,8-dimethylimidazo[1,2-a]pyrazin-2-yl)-7-(4-ethyl-3-methylpiperazin-1-yl)-2H-chromen-2-one], the Kd is 17.5 ± 2.2 µM in assay [1] (Seq 6 UGAAGGAAGGU, 0.5 μM SMN-C2, range = 95% CI, read-out: RNA Kd); greater than 100 µM in assay [2]; greater than 100 µM in assay [3]; greater than 100 µM in assay [4]; 19.5 ± 2.3 µM in assay [5]; 31.4 ± 4 µM in [6]. Also, the Kd was 16.5 ± 1.1 µM in assay [7], 44.7 ± 7.2 µM in assay [8], 36.8 ± 11.4 µM in assay [9] and 5.4 µM in assay [10]. For the same compound, the “binding affinity (Kd) to RNA Seq6 relative to RNA Seq18, fold stronger” value in [1] (binding site 2 vs binding site 1) is on record as 3.4 fold. The “exon 7 inclusion” value in assay [11] (1 μM, 293T cells transfected with mutated minigenes M1, M2) is recorded as greater than 90%. Further, the “EC50 relative to minigene with wildtype exon 7 sequence, fold higher” value in assay [11] (mutated minigenes M1, M2 in 293T cells) is recorded as 2-3 fold. Further, the “binding to dsDNA (ITC)” value in assay [12] is on record as “abrogated most of the binding affinity”.
